Assay results as given in a compilation of properties of binary mixtures (doi:10.1016/j.molliq.2020.114573).

Assay: xn = mol fraction of the nth substance listed
Details: 101.3 kPa

CCCCn1cc[n+](C)c1C.O=S(=O)([N-]S(=O)(=O)C(F)(F)F)C(F)(F)F + CC1COC(=O)O1
viscosity [mPa·s]
Details | x1 = 0.0902 | x1 = 0.193 | x1 = 0.2934 | x1 = 0.4039 | x1 = 0.4996 | x1 = 0.6034 | x1 = 0.6989 | x1 = 0.8107 | x1 = 0.8987 | x1 = 1
288.15 K | 5.24 | 9.07 | 14.94 | 24.89 | 37.46 | 54.7 | – | 104.9 | 137 | 178.8
293.15 K | – | 7.79 | 12.54 | 20.44 | 30.16 | – | 59.4 | 80.2 | 103.2 | 132.9
298.15 K | 4.073 | 6.76 | 10.65 | – | 24.69 | 34.79 | 47.12 | 62.7 | 79.6 | 101.1
303.15 K | 3.637 | – | 9.15 | 14.34 | – | 28.47 | 38.01 | – | 62.6 | –
308.15 K | 3.272 | – | 7.95 | 12.21 | 17.68 | 23.64 | 31.16 | – | 50.2 | 62.2
313.15 K | – | 4.661 | 6.97 | – | 15.21 | 19.88 | 25.91 | 33.28 | 40.89 | –
318.15 K | 2.693 | – | – | 9.16 | – | 17.36 | 21.81 | – | 33.77 | –
323.15 K | 2.463 | 3.77 | 5.49 | 8.04 | 11.16 | 15.04 | 18.72 | 23.39 | 28.28 | 34.04
328.15 K | – | 3.421 | 4.92 | 7.12 | 9.65 | 12.98 | 16.46 | 19.94 | 23.94 | 28.58
333.15 K | 2.088 | 3.121 | 4.439 | 6.34 | 8.42 | 11.22 | 14.32 | – | 20.47 | –
338.15 K | 1.933 | 2.86 | – | 5.69 | – | 9.78 | 12.45 | 15.42 | 17.95 | 20.79
343.15 K | 1.796 | 2.633 | 3.671 | 5.13 | – | – | 10.85 | 13.47 | 15.87 | 18.12
348.15 K | 1.675 | 2.433 | 3.363 | 4.658 | 5.82 | 7.58 | 9.51 | 11.82 | 13.95 | 16.01

CC1COC(=O)O1 (centres undefined) + CCCC[n+]1ccn(C)c1.O=S(=O)([N-]S(=O)(=O)C(F)(F)F)C(F)(F)F
viscosity [mPa·s]
Details | x2 = 0 | x2 = 0.1013 | x2 = 0.1557 | x2 = 0.3071 | x2 = 0.4128 | x2 = 0.5045 | x2 = 0.6 | x2 = 0.7 | x2 = 0.8079 | x2 = 0.8776
288.15 K | 3.063 | 5.14 | 6.77 | 12.5 | 18.43 | 24.64 | 32.48 | 43.74 | 55.8 | 64.4
293.15 K | 2.746 | 4.535 | 5.9 | 10.63 | 15.39 | 20.32 | – | 35.25 | 44.52 | –
298.15 K | 2.476 | – | 5.19 | 9.12 | 13.04 | – | 21.83 | – | 36.14 | 41.16
303.15 K | 2.246 | 3.605 | 4.596 | 7.92 | 11.15 | – | 18.29 | 24.03 | – | –
308.15 K | 2.049 | – | – | 6.95 | – | – | 15.52 | 20.24 | 24.9 | 28.07
313.15 K | 1.879 | 2.945 | 3.69 | 6.14 | 8.42 | – | 13.31 | 17.63 | 21.07 | –
318.15 K | 1.73 | 2.683 | 3.339 | 5.47 | 7.42 | 9.33 | 11.54 | – | 18.27 | 20.13
323.15 K | 1.6 | 2.455 | 3.038 | 4.91 | – | 8.21 | 10.09 | – | 16.06 | 17.66
328.15 K | 1.486 | 2.258 | 2.778 | 4.422 | 5.88 | 7.29 | 8.9 | 11.5 | 13.99 | 15.53
333.15 K | 1.385 | 2.085 | 2.552 | 4.014 | 5.3 | 6.52 | 7.91 | 10.04 | 12.18 | –
338.15 K | 1.294 | 1.931 | 2.354 | – | 4.79 | 5.86 | 7.07 | 8.82 | 10.66 | 11.9
343.15 K | 1.213 | 1.796 | 2.18 | 3.353 | 4.359 | 5.3 | 6.36 | 7.8 | 9.39 | 10.46
348.15 K | – | 1.676 | – | 3.085 | 3.984 | 4.82 | 5.76 | 6.96 | 8.33 | 9.23

CC1COC(=O)O1 (centres undefined) + CC[n+]1ccn(C)c1.O=S(=O)([N-]S(=O)(=O)C(F)(F)F)C(F)(F)F
x2 = 0
Details | viscosity [mPa·s]
288.15 K | 3.063
293.15 K | 2.746
298.15 K | 2.476
308.15 K | 2.049
313.15 K | 1.879
323.15 K | 1.6
328.15 K | 1.486
333.15 K | 1.385
343.15 K | 1.213
348.15 K | 1.14

CC1COC(=O)O1 (centres undefined) + CC[n+]1ccn(C)c1C.O=S(=O)([N-]S(=O)(=O)C(F)(F)F)C(F)(F)F
x2 = 0
Details | viscosity [mPa·s]
293.15 K | 2.746
298.15 K | 2.476
303.15 K | 2.246
313.15 K | 1.879
318.15 K | 1.73
323.15 K | 1.6
328.15 K | 1.486
333.15 K | 1.385
338.15 K | 1.294
343.15 K | 1.213

CC1COC(=O)O1 (centres undefined) + FC(S(=O)(=O)[N-]S(=O)(=O)C(F)(F)F)(F)F.C(CCC)N1C(=[N+](C=C1)C)C
x2 = 0
Details | viscosity [mPa·s]
298.15 K | 2.476
303.15 K | 2.246
308.15 K | 2.049
313.15 K | 1.879
318.15 K | 1.73
323.15 K | 1.6
328.15 K | 1.486
333.15 K | 1.385
338.15 K | 1.294
348.15 K | 1.14
